Test results from the NIST ThermoML archive (doi:10.1021/je049612f).

Details: Gas, Vibrating wire viscometry

FS(F)(F)(F)(F)F [sulfur hexafluoride]
Details	viscosity [mPa·s]
321 K, 1893.8 kPa	0.01729
321 K, 1930.7 kPa	0.01734
321 K, 2004.9 kPa	0.01743
321 K, 2041.9 kPa	0.01747
321 K, 2120.4 kPa	0.01758
321 K, 2221.3 kPa	0.01772
321 K, 2270.3 kPa	0.0178
321 K, 2332.7 kPa	0.0179
321 K, 2373.2 kPa	0.01797
321 K, 2451.3 kPa	0.01812
321 K, 2534.7 kPa	0.01826
321 K, 2581.9 kPa	0.01837
321 K, 2629.5 kPa	0.01846
321 K, 2688.1 kPa	0.0186
321 K, 2803.9 kPa	0.01888
321 K, 2873.5 kPa	0.01908
321 K, 2959.1 kPa	0.01932
321 K, 3050 kPa	0.01963
321 K, 3136.6 kPa	0.01995
321 K, 3229.6 kPa	0.02035
321 K, 3282 kPa	0.0206
321 K, 3384.4 kPa	0.02117
321 K, 3445.9 kPa	0.02156
321 K, 3498.8 kPa	0.02195
321 K, 3558.3 kPa	0.02244
321 K, 3606.1 kPa	0.02294
321 K, 3651.4 kPa	0.02346
321 K, 3695.6 kPa	0.02407
321 K, 3729.2 kPa	0.02462
321 K, 3765.4 kPa	0.0253
321 K, 3793.6 kPa	0.026
321 K, 3819.6 kPa	0.02674
321 K, 3858.5 kPa	0.02827
321 K, 3887.8 kPa	0.0299
321 K, 3899.4 kPa	0.03104
321 K, 3910.1 kPa	0.03218
321 K, 3918.4 kPa	0.03355
321 K, 3926.6 kPa	0.03481
321 K, 3933.3 kPa	0.03615
321 K, 3938.4 kPa	0.03743
321 K, 3945.7 kPa	0.03995
321 K, 3950.6 kPa	0.04131
321 K, 3955.4 kPa	0.04272
321 K, 3961 kPa	0.04435
321 K, 3968.8 kPa	0.04638
321 K, 3977 kPa	0.04813
321 K, 3988.3 kPa	0.05018
321 K, 4001.1 kPa	0.05214
321 K, 4020.8 kPa	0.05448
321 K, 4046.8 kPa	0.05683
321 K, 4077.1 kPa	0.05902
321 K, 4112.9 kPa	0.06125
321 K, 4160 kPa	0.0635
321 K, 4223.8 kPa	0.06599
321 K, 4349.4 kPa	0.07
321 K, 4465.5 kPa	0.07305
321 K, 4601.3 kPa	0.07606
321 K, 4740.5 kPa	0.07859
321 K, 4879.1 kPa	0.08093
321 K, 5134 kPa	0.08474
321 K, 5554.1 kPa	0.09001
321 K, 5938 kPa	0.09416
321 K, 6388.7 kPa	0.09845
321 K, 7256.2 kPa	0.1057
321 K, 7905.1 kPa	0.1105
321 K, 8647.5 kPa	0.1154
321 K, 9548.1 kPa	0.1212
321 K, 10352 kPa	0.1258
321 K, 11075 kPa	0.1297
333.15 K, 91.55 kPa	0.01681
333.15 K, 113.58 kPa	0.01682
333.15 K, 142.52 kPa	0.01682
333.15 K, 172.42 kPa	0.01683
333.15 K, 198.48 kPa	0.01684
333.15 K, 218.78 kPa	0.01685
333.15 K, 243.22 kPa	0.01685
333.15 K, 275.2 kPa	0.01686
333.15 K, 294.03 kPa	0.01686
333.15 K, 319.41 kPa	0.01687
333.15 K, 350.89 kPa	0.01688
333.15 K, 378.94 kPa	0.01689
333.15 K, 416.93 kPa	0.0169
333.15 K, 443.4 kPa	0.01691
333.15 K, 479.64 kPa	0.01692
